“Also recorded” adds a separate entry of the source.
Assays:
[1] = test system: RSV A Tracy; test: RSV A Tracy microneutralization (MN) assay of mAbs; assay type: cell-based, respiratory syncytial virus; conditions: for MN titer: RSV A Tracy, HEp-2 cells, 50% reduction in viral cytopathic effect
Procedure: The RSV A Tracy MN assay was performed by Prof. Pedro Piedra at Baylor College of Medicine, Texas, USA. Heat-inactivated serum samples were analyzed for nAbs against RSV A/Tracy in HEp-2 cells using qualified MN assays as previously described[38]–[41]. nAb titers were defined as the final dilution at which there was a 50% reduction in viral cytopathic effect. Any serum sample resulting in a titer less than the lower limit of detection (LOD) (2.5 log2) was assigned a value of 2 log2.

[2] = test system: palivizumab; test: ELISA binding of palivizumab to coated V-306, V-306p or SVLP carrier; parameters: species or system humanized murine
Procedure: These ELISA were performed at the Center for Vaccinology (CEVAC), Ghent University and University Hospital, Belgium, based on the methods described above. […] Then 8 twofold serial dilutions of human serum were added. After washing, anti-human IgG Fc mAb-HRP (1/120,000 dilution) was added. After washing, TMB substrate was added. The color reaction was terminated by the addition of 1 N sulphuric acid. After 30 min the OD is read. The optical density for a given sample was used to extrapolate the Ab titer expressed in µg/mL. The coating conditions were optimized using IgG-depleted human serum spiked with known concentrations of palivizumab such that no further increase in signal is observed (saturation point) and no significant signal is seen in the negative control. The sensitivity of the assay was determined using different concentrations of palivizumab (from 0 to 200 µg/mL) and of anti-human IgG HRP-conjugated Ab (see Supplementary Fig. 5). The detection limit was 0.012207 µg/mL palivizumab (0.61 µg/mL in human serum diluted 1/50). The palivizumab-like Ab concentrations found in 20 different human sera (serum samples 001–020) are shown in Supplementary Fig. 5.

[3] = test system: RSV strain A2; test: Passive transfer challenge model, lung virus titer by plaque assay; assay type: in vivo; conditions: cotton rats n = 5, mAb 24 h before challenge with 10^4 PFU RSV A2, doses 1.0, 2.5, 5.0, 15 mg; lungs day 5; ****P ≤ 0.0001 vs PBS
Procedure: The challenge study comparing 10D11 and palivizumab was performed at Sigmovir Biosystems Inc. (MD, USA). Young adult male cotton rats (8, 6–8 weeks old) were treated IM with the mAb (1.0, 2.5, 5.0, or 15 mg doses). All animals were challenged with 100 µl RSV/A2 at 10^5 pfu per animal. After sacrificing the animals, nasal and lung tissue were harvested for viral titration using the RSV/A2 60% PRNT assay described above.

Molecule | MN titer [1] [log2] | detection limit of ELISA ([2]; ELISA with palivizumab standard 0 to 200 µg/mL) [µg/mL] | detection limit of ELISA in human serum ([2]; human serum diluted 1/50) [µg/mL] | reduction of RSV replication in lungs, passive transfer [3] | MN potency of 10D11 relative to palivizumab (fold) ([1]; RSV A Tracy MN)
palivizumab: prophylactic humanized murine monoclonal nAb | 5.0 | 0.01221 | 0.61 | significantly reduced RSV replication in the lungs in a dose-dependent manner | 
10D11: monoclonal antibody against V-306 generated in BALB/c mice (antibody, V domains shown) VH: QVQLKESGPGLVAPSQSLSITCTVSGFSLTSYDISWIRQPPGKGLEWLGIIWNGGGTNYNSAFMSRLSINKDNSKSQVFLKMNSLQTDDTAIYYCVRGDYDYAWFDYWGQGTLVTVSA VL: NIMMTQSPSSLTVSAGEKVTMSCKSSQSVLYGSNQKNYLAWYQQKPGQSPKLLIYWASTRDSGVPDRFTGSGSGTDFTLTISSVQAEDLAVYYCHQYLFSWTFGGGTKLEIK | 7.0 |  |  | significantly reduced RSV replication in the lungs in a dose-dependent manner; also recorded: reduced lung virus titers in a dose-dependent manner | approximately fourfold
